Measured values published in PubChem BioAssay (NCI).
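Assay format: 96-well plates, 48-hour exposure. Here, GI50 denotes the concentration required for 50% inhibition of growth. TGI is the concentration that stops growth completely.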

Experiments:
Assay in all cases: NCI-60 cell line screen, 48 h
[1] = test system: SW-620 colon
[2] = test system: SN12C renal
[3] = test system: UACC-257 melanoma
[4] = test system: HL-60(TB) leukemia
[5] = test system: T-47D breast
[6] = test system: SF-539 CNS
[7] = test system: PC-3 prostate
[8] = test system: HS 578T breast
[9] = test system: MDA-MB-435
[10] = test system: HCT-15 colon
[11] = test system: MALME-3M melanoma
[12] = test system: NCI-H23 lung
[13] = test system: KM12 colon
[14] = test system: UO-31 renal
[15] = test system: SF-268 CNS
[16] = test system: HCT-116 colon
[17] = test system: U251 CNS
[18] = test system: COLO 205 colon
[19] = test system: MCF7 breast
[20] = test system: DU-145 prostate
[21] = test system: NCI/ADR-RES ovarian
[22] = test system: HT29 colon
[23] = test system: MDA-MB-231 breast
[24] = test system: RXF 393 renal
[25] = test system: UACC-62 melanoma
[26] = test system: TK-10 renal
[27] = test system: OVCAR-5 ovarian
[28] = test system: BT-549 breast
[29] = test system: HOP-62 NSCLC
[30] = test system: SF-295 CNS
[31] = test system: OVCAR-4 ovarian
[32] = test system: SR leukemia
[33] = test system: OVCAR-8 ovarian
[34] = test system: LOX IMVI melanoma
[35] = test system: HCC-2998 colon
[36] = test system: M14 melanoma
[37] = test system: SK-MEL-5 melanoma
[38] = test system: IGROV1 ovarian
[39] = test system: ACHN renal
[40] = test system: SK-MEL-2 melanoma
[41] = test system: A498 renal
[42] = test system: NCI-H522 lung
[43] = test system: NCI-H226 lung
[44] = test system: SK-MEL-28 melanoma
[45] = test system: MOLT-4 leukemia
[46] = test system: 786-0 renal
[47] = test system: SNB-75 CNS
[48] = test system: CAKI-1 renal
[49] = test system: A549 NSCLC
[50] = test system: SNB-19 CNS
[51] = test system: CCRF-CEM leukemia
[52] = test system: RPMI-8226 leukemia
[53] = test system: NCI-H460 lung
[54] = test system: SK-OV-3 ovarian
[55] = test system: K-562 leukemia

Which results are given for `COc1ccc(-c2nn(-c3cccc(NC(=O)c4ccc(N5CCOCC5)c(C(F)(F)F)c4)c3)cc2-c2ccncc2)cc1Cl`?
GI50 [1]: 21.3 µM; TGI [1]: > 50 µM; GI50 [2]: > 50 µM; TGI [2]: > 50 µM; GI50 [3]: > 50 µM; TGI [3]: > 50 µM; GI50 [4]: 4.42 µM; TGI [4]: > 50 µM; GI50 [5]: 4.5 µM; TGI [5]: > 50 µM; GI50 [6]: 2.66 µM; TGI [6]: 36.3 µM; GI50 [7]: 3.49 µM; TGI [7]: > 50 µM; GI50 [8]: 2.65 µM; TGI [8]: > 50 µM; GI50 [9]: 2.6 µM; TGI [9]: 35 µM; GI50 [10]: 2.99 µM; TGI [10]: > 50 µM; GI50 [11]: 5.05 µM; TGI [11]: > 50 µM; GI50 [12]: 29.9 µM; TGI [12]: > 50 µM; GI50 [13]: 2.11 µM; TGI [13]: > 50 µM; GI50 [14]: 20.8 µM; TGI [14]: > 50 µM; GI50 [15]: 13.3 µM; TGI [15]: > 50 µM; GI50 [16]: 3.74 µM; TGI [16]: > 50 µM; GI50 [17]: 1.14 µM; TGI [17]: > 50 µM; GI50 [18]: 4.25 µM; TGI [18]: > 50 µM; GI50 [19]: 3.11 µM; TGI [19]: > 50 µM; GI50 [20]: > 50 µM; TGI [20]: > 50 µM; GI50 [21]: 3.41 µM; TGI [21]: 24.5 µM; GI50 [22]: 1.72 µM; TGI [22]: > 50 µM; GI50 [23]: 2.29 µM; TGI [23]: > 50 µM; GI50 [24]: 1.35 µM; TGI [24]: 23.3 µM; GI50 [25]: 8.69 µM; TGI [25]: > 50 µM; GI50 [26]: > 50 µM; TGI [26]: > 50 µM; GI50 [27]: > 50 µM; TGI [27]: > 50 µM; GI50 [28]: 4.14 µM; TGI [28]: > 50 µM; GI50 [29]: 11.4 µM; TGI [29]: > 50 µM; GI50 [30]: 2.31 µM; TGI [30]: > 50 µM; GI50 [31]: 36.2 µM; TGI [31]: > 50 µM; GI50 [32]: 1.62 µM; TGI [32]: > 50 µM; GI50 [33]: 4.47 µM; TGI [33]: > 50 µM; GI50 [34]: 9.98 µM; TGI [34]: > 50 µM; GI50 [35]: 14.1 µM; TGI [35]: > 50 µM; GI50 [36]: 4.54 µM; TGI [36]: 38.1 µM; GI50 [37]: 6.4 µM; TGI [37]: > 50 µM; GI50 [38]: > 50 µM; TGI [38]: > 50 µM; GI50 [39]: 10.2 µM; TGI [39]: > 50 µM; GI50 [40]: 16.3 µM; TGI [40]: > 50 µM; GI50 [41]: 2.44 µM; TGI [41]: 26.4 µM; GI50 [42]: 2.77 µM; TGI [42]: 34.4 µM; GI50 [43]: 21.3 µM; TGI [43]: > 50 µM; GI50 [44]: 9.97 µM; TGI [44]: > 50 µM; GI50 [45]: 4.5 µM; TGI [45]: > 50 µM; GI50 [46]: 1.51 µM; TGI [46]: 27.6 µM; GI50 [47]: 0.797 µM; TGI [47]: 4.95 µM; GI50 [48]: 3.64 µM; TGI [48]: > 50 µM; GI50 [49]: 6.52 µM; TGI [49]: > 50 µM; GI50 [50]: 46.8 µM; TGI [50]: > 50 µM; GI50 [51]: 2.92 µM; TGI [51]: > 50 µM; GI50 [52]: 2.06 µM; TGI [52]: > 50 µM; GI50 [53]: 5.23 µM; TGI [53]: > 50 µM; GI50 [54]: 32.8 µM; TGI [54]: > 50 µM; GI50 [55]: 1.89 µM; TGI [55]: > 50 µM
